Marks after values point to notes of the source that are not given here. Blank lines part the entries; values can stand above or below the compound they belong to. Peptide text beside a SMILES is read from it. * marks the point of attachment. X71 = O=C1C=CC(=O)N1c1cccc(CCCCCC(=O)*)c1; X49 = O=C1C=CC(=O)N1c1ccccc1CCCCCC(=O)*
Experiments:
[1] = test system: choroidal neovascularization; test: Choroidal neovascularization in rats (laser photocoagulation, FFA); type: in vivo; details: BN rats
Experimental: 6-8 weeks male BN rats were fully anesthetized by intraperitoneal injection of 846 compound anesthetic with a concentration of 0.5 mL/kg. Compound tropicamide eye drops were used once 5 min before laser photocoagulation to fully dilate the pupils of both eyes. The animals were fixed and subjected to krypton laser photocoagulation equidistantly around an optic disc with the aid of a −53.00D corneal contact lens at a distance of 2PD from the optic disc. A total of 8 photocoagulation spots were obtained. The laser wavelength was 647.1 nm, the power was 350 mW, and the diameter and time of the photocoagulation spots were 50 μm and 0.05 s respectively. Fundus photography was performed immediately after photocoagulation. FFA, histopathology and transmission electron microscopy were performed on the days 3, 7, 14, 21 and 28 after photocoagulation respectively.
Through fundus photography and FFA examination, it was confirmed that the fluorescein leakage of the photocoagulation spot reached its peak on day 21 after photocoagulation. At the same time, histopathological examination was carried out.
Rats with successful modeling were randomly grouped, with 5 rats in each group. The groups were marked as a negative control group and X1-X90 treatment groups respectively. The rats were injected with normal saline and X1-X90 (the doses of X1-X90 were each 0.05 μM) in the vitreous chamber once a day for 1 week. FFA examination was carried out 3 days, 7 days, 14 days and 28 days after administration.

HUVECs = test: Transwell migration inhibition on HUVECs; type: cell-based, human; details: for Inhibition rate (%): HUVEC migration vs blank control; for Cell migration number (Mean ± SD): HUVECs, transwell, 24 h
[2] = test system: corneal neovascularization; test: Corneal neovascularization induced by alkali burn in BALB/c mice; type: in vivo; parameters: Inhibition rate (corneal neovascularization): concentration or dose not given beside the values; details: day 14 after alkali burn, vitreous injection once a day for 1 week
[3] = test system: carrageenan-induced toe swelling; test: Carrageenan-induced toe swelling in rats; type: in vivo; details: SD rats; for Swelling degree 1 h: 1 h after carrageenan; for Swelling degree 3 h: 3 h after carrageenan; for Swelling degree 5 h: 5 h after carrageenan; for Swelling degree 7 h: 7 h after carrageenan
How it was run: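 Paw swelling, in mL, is the post-inflammation minus pre-inflammation volume of the right hind foot, read as overflow liquid when immersed to a pen-marked joint. Treatment was daily injection over 3 d; model group received saline of the same volume.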

[4] = Half-lives and pharmacokinetic parameters of polypeptides vs HM-1; details: in vivo; for half-life: T1/2β (half-life)
[5] = test system: human retinal capillary endothelial cells (HRCECs); test: MTT proliferation inhibition on HRCECs; type: cell-based; details: 48 h; for A570 nm-A630 nm: mean±SD
How it was run: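 HRCECs seeded at 3.0×10^4 cells/mL, adhered overnight, then exposed to polypeptide for 48 h at 37 °C, 5% CO2. MTT added 4 h, formazan dissolved in DMSO, absorbance 570/630 nm; PIR (%) = 1 − treated/negative control, mean±SD of three independent runs.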

[6] = test system: collagen-induced arthritis; test: Mouse collagen-induced arthritis (CIA) animal model; type: in vivo; details: DBA/1 mice CIA model, dose 4.0 mg/kg, subcutaneous from day 30, n=10; for Clinical score: highest score 16
[7] = test system: xylene-induced ear swelling; test: Xylene-induced mouse ear swelling; type: in vivo; details: Kunming mice, injected once a day for 5 days; for Inhibition rate (%): xylene-induced ear swelling
How it was run: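 Ear pieces punched and weighed 2 h after xylene (0.05 mL, right ear only; left ear as normal) gave swelling degree (right − left weight) and swelling rate (degree/left weight ×100%). Kunming mice received injections daily for 5 consecutive days, xylene applied 1 h after final dose.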

[8] = day 3 after administration, total light spot number was 297, 0.05 μM in the vitreous chamber once a day for 1 week
[9] = day 7 after administration, total light spot number was 186, 0.05 μM in the vitreous chamber once a day for 1 week
[10] = day 14 after administration, total light spot number was 137, 0.05 μM in the vitreous chamber once a day for 1 week
[11] = day 28 after administration, total light spot number was 69, 0.05 μM in the vitreous chamber once a day for 1 week
[12] = dose 2 mg/kg, right minus left ear piece weight 2 h after xylene
[13] = dose 4 mg/kg, right minus left ear piece weight 2 h after xylene
[14] = dose 8 mg/kg, right minus left ear piece weight 2 h after xylene

AUC(0-inf) [4]: 32200 ± 8030 ng·h/mL
MRT inf [4]: 57.6 ± 10.6 h
clearance [4]: 0.518 mL/min/kg
half-life [4]: 39.91 ± 0.25 h
Compound: C[C@H](NC(=O)CNC(=O)[C@H](CCCNC(=N)N)NC(=O)CCCCCc1cccc(N2C(=O)C=CC2=O)c1)C(=O)N[C@@H](CC(=O)O)C(=O)N[C@@H](CCCNC(=N)N)C(=O)N[C@@H](C)C(=O)NCC(=O)NCC(=O)NCC(=O)NCC(=O)N[C@@H](CCCNC(=N)N)C(=O)NCC(=O)N[C@@H](CC(=O)O)C(=O)O [X29] (X71-RGADRAGGGGRGD-OH)
CNV Incidence (%) [1, 8]: 54.21%
Leakage Light spot number [1, 8]: 161
CNV Incidence (%) [1, 9]: 45.70%
Leakage Light spot number [1, 9]: 85
CNV Incidence (%) [1, 10]: 40.88%
Leakage Light spot number [1, 10]: 56
CNV Incidence (%) [1, 11]: 39.13%
Leakage Light spot number [1, 11]: 27
Inhibition rate (%) (HUVECs; dose 0.05 μM): 46.37%
Inhibition rate (%) (HUVECs; dose 0.1 μM): 50.43%
Inhibition rate (%) (HUVECs; dose 0.2 μM): 53.84%
Cell migration number (Mean ± SD) (HUVECs; dose 0.05 μM): 574.88 ± 55.42
Cell migration number (Mean ± SD) (HUVECs; dose 0.1 μM): 531.34 ± 47.59
Cell migration number (Mean ± SD) (HUVECs; dose 0.2 μM): 494.73 ± 56.78
Inhibition rate (corneal neovascularization) [2]: 54.98%
MVD (corneal microvessel density) [2]: 30.27 ± 4.918
Swelling degree 1 h ([3]; 2.0 mg/kg once a day for 3 d): 0.27 ± 0.16 mg
Swelling degree 3 h ([3]; 2.0 mg/kg once a day for 3 d): 0.35 ± 0.18 mg
Swelling degree 5 h ([3]; 2.0 mg/kg once a day for 3 d): 0.36 ± 0.19 mg
Swelling degree 7 h ([3]; 2.0 mg/kg once a day for 3 d): 0.33 ± 0.17 mg
Swelling degree 1 h ([3]; 4.0 mg/kg once a day for 3 d): 0.22 ± 0.12 mg
Swelling degree 3 h ([3]; 4.0 mg/kg once a day for 3 d): 0.34 ± 0.15 mg
Swelling degree 5 h ([3]; 4.0 mg/kg once a day for 3 d): 0.35 ± 0.13 mg
Swelling degree 7 h ([3]; 4.0 mg/kg once a day for 3 d): 0.32 ± 0.17 mg
Inhibition rate (%) ([5]; dose 0.05 μM): 52.67%*
A570 nm-A630 nm ([5]; dose 0.05 μM): 0.6256 ± 0.09549
Inhibition rate (%) ([5]; dose 0.1 μM): 58.02%**
A570 nm-A630 nm ([5]; dose 0.1 μM): 0.5549 ± 0.02011
Inhibition rate (%) ([5]; dose 0.2 μM): 61.03%*
A570 nm-A630 nm ([5]; dose 0.2 μM): 0.5151 ± 0.01135
Joint swelling degree (mm) [6]: 0.81 ± 0.15 mm
Left and right paw swelling degree (mm) [6]: 0.71 ± 0.13 mm
Clinical score [6]: 8.98 ± 1.44
Swelling degree [7, 12]: 5.43 ± 0.91 mg
Inhibition rate (%) ([7]; dose 2 mg/kg): 12.84%
Swelling degree (mg) [7, 13]: 4.96 ± 0.1* mg
Inhibition rate (%) ([7]; dose 4 mg/kg): 20.39%
Swelling degree (mg) [7, 14]: 3.86 ± 0.45** mg
Inhibition rate (%) ([7]; dose 8 mg/kg): 38.04%

AUC(0-inf) [4]: 30000 ± 7060 ng·h/mL
MRT inf [4]: 53.8 ± 12.3 h
clearance [4]: 0.555 mL/min/kg
half-life [4]: 37.26 ± 0.29 h
Compound: C[C@H](NC(=O)CNC(=O)[C@H](CCCNC(=N)N)NC(=O)CCCCCc1ccccc1N1C(=O)C=CC1=O)C(=O)N[C@@H](CC(=O)O)C(=O)N[C@@H](CCCNC(=N)N)C(=O)N[C@@H](C)C(=O)NCC(=O)NCC(=O)NCC(=O)NCC(=O)N[C@@H](CCCNC(=N)N)C(=O)NCC(=O)N[C@@H](CC(=O)O)C(=O)O [X17] (X49-RGADRAGGGGRGD-OH)
CNV Incidence (%) [1, 8]: 54.88%
Leakage Light spot number [1, 8]: 163
CNV Incidence (%) [1, 9]: 48.39%
Leakage Light spot number [1, 9]: 90
CNV Incidence (%) [1, 10]: 42.34%
Leakage Light spot number [1, 10]: 58
CNV Incidence (%) [1, 11]: 40.58%
Leakage Light spot number [1, 11]: 28
Inhibition rate (%) (HUVECs; dose 0.05 μM): 48.96%
Inhibition rate (%) (HUVECs; dose 0.1 μM): 54.89%
Inhibition rate (%) (HUVECs; dose 0.2 μM): 57.52%
Cell migration number (Mean ± SD) (HUVECs; dose 0.05 μM): 547.07 ± 50.72
Cell migration number (Mean ± SD) (HUVECs; dose 0.1 μM): 483.55 ± 66.46
Cell migration number (Mean ± SD) (HUVECs; dose 0.2 μM): 455.35 ± 68.52
Inhibition rate (corneal neovascularization) [2]: 48.05%
MVD (corneal microvessel density) [2]: 34.93 ± 4.725
Swelling degree 1 h ([3]; 2.0 mg/kg once a day for 3 d): 0.27 ± 0.15 mg
Swelling degree 3 h ([3]; 2.0 mg/kg once a day for 3 d): 0.32 ± 0.14 mg
Swelling degree 5 h ([3]; 2.0 mg/kg once a day for 3 d): 0.38 ± 0.17 mg
Swelling degree 7 h ([3]; 2.0 mg/kg once a day for 3 d): 0.35 ± 0.19 mg
Swelling degree 1 h ([3]; 4.0 mg/kg once a day for 3 d): 0.24 ± 0.12 mg
Swelling degree 3 h ([3]; 4.0 mg/kg once a day for 3 d): 0.31 ± 0.19 mg
Swelling degree 5 h ([3]; 4.0 mg/kg once a day for 3 d): 0.37 ± 0.17 mg
Swelling degree 7 h ([3]; 4.0 mg/kg once a day for 3 d): 0.34 ± 0.15 mg
Inhibition rate (%) ([5]; dose 0.05 μM): 55.10%*
A570 nm-A630 nm ([5]; dose 0.05 μM): 0.5934 ± 0.03887
Inhibition rate (%) ([5]; dose 0.1 μM): 62.16%**
A570 nm-A630 nm ([5]; dose 0.1 μM): 0.5001 ± 0.02347
Inhibition rate (%) ([5]; dose 0.2 μM): 65.08%*
A570 nm-A630 nm ([5]; dose 0.2 μM): 0.4616 ± 0.02184
Joint swelling degree (mm) [6]: 0.79 ± 0.12 mm
Left and right paw swelling degree (mm) [6]: 0.78 ± 0.17 mm
Clinical score [6]: 9.13 ± 1.31
Swelling degree (mg) [7, 12]: 4.65 ± 0.79* mg
Inhibition rate (%) ([7]; dose 2 mg/kg): 25.36%
Swelling degree (mg) [7, 13]: 4.43 ± 0.75* mg
Inhibition rate (%) ([7]; dose 4 mg/kg): 28.89%
Swelling degree (mg) [7, 14]: 3.53 ± 0.1** mg
Inhibition rate (%) ([7]; dose 8 mg/kg): 43.34%

— US20200270309A1, “MALEIMIDE GROUP-MODIFIED ANGIOGENESIS INHIBITOR HM-1 AND USE THEREOF” (NANJING ANJI BIOLOGICAL TECHNOLOGY CO., LTD, priority 2017, published 2020)
